From BindingDB's records for doi:10.1016/0196-9781(94)90118-x (Tulane University, 1994)
Positions of bridges follow the written chain, without caps; N, C: chain ends. Non-standard residues stand in square brackets, D forms with d. Residues, ends and D or L forms follow the SMILES beside them. ξ: configuration not given here. 2Nal = N[C@@H](Cc1ccc2ccccc2c1)C(=O)O; d2Nal = N[C@H](Cc1ccc2ccccc2c1)C(=O)O; ξPhg = NC(C(=O)O)c1ccccc1; Abu = CC[C@H](N)C(=O)O

Assays:
[1] = molecular target: Somatostatin receptor type 2 (Rattus norvegicus, UniProt P30680)
Chain of Somatostatin receptor type 2 (P30680 whole entry): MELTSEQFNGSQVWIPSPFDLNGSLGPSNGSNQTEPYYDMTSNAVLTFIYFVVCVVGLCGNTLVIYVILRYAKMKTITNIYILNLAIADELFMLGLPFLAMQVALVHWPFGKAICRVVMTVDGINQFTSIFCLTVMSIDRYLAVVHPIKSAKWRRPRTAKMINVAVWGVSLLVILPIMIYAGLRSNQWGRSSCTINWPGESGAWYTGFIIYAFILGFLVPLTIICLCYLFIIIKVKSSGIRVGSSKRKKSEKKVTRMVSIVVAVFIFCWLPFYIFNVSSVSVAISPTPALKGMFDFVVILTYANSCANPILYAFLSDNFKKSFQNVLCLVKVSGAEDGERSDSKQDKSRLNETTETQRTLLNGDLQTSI

[2] = molecular target: Somatostatin receptor type 3 (Rattus norvegicus, UniProt P30936)
Chain of Somatostatin receptor type 3 (P30936 whole entry): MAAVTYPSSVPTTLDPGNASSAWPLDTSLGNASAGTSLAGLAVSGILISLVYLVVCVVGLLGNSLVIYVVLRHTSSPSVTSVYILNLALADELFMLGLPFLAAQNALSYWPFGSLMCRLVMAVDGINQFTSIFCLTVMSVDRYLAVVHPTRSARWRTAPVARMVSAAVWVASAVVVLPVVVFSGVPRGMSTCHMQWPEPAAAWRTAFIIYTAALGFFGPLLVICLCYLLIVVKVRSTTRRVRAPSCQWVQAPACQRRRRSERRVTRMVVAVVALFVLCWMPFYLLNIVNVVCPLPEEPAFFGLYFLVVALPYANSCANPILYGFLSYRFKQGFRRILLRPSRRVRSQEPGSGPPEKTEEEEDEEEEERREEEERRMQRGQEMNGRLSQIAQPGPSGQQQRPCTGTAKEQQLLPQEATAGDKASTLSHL

[3] = molecular target: T1, Somatostatin receptor type 5 (Rattus norvegicus, UniProt P30938)
T1 sequence (P30938 whole entry): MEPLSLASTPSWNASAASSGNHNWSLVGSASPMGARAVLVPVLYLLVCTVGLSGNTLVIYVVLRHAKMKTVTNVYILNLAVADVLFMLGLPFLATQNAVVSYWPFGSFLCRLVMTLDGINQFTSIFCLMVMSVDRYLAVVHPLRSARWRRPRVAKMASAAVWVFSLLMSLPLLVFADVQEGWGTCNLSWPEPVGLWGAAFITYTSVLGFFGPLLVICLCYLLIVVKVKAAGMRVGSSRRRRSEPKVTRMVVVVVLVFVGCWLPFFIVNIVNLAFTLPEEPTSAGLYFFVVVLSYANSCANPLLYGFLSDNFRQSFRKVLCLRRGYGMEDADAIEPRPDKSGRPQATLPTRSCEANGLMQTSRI

[4] = molecular target: Somatostatin receptor type 1 (Rattus norvegicus, UniProt P28646)
Chain of Somatostatin receptor type 1 (P28646 whole entry): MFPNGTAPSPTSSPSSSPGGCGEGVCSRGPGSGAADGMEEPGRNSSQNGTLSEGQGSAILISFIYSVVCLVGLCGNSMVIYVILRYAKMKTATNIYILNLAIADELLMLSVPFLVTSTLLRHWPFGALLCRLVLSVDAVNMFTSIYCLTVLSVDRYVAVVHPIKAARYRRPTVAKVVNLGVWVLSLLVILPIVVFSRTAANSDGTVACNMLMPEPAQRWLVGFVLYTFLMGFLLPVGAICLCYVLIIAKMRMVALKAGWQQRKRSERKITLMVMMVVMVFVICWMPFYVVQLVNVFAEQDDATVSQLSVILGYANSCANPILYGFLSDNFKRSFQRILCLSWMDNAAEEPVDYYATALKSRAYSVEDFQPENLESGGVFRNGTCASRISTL

[5] = molecular target: Somatostatin receptor type 4 (Rattus norvegicus, UniProt P30937)
Chain of Somatostatin receptor type 4 (P30937 whole entry): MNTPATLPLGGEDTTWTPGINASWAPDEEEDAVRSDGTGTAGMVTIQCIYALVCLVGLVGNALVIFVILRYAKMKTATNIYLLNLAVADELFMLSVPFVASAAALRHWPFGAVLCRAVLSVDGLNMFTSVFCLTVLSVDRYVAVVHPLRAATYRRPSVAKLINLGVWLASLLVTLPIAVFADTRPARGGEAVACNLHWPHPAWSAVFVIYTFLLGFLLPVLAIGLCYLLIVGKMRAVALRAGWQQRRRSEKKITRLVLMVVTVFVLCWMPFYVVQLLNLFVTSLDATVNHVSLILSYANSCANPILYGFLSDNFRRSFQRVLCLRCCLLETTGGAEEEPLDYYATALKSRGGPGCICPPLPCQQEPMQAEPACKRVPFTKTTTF

SMILES	Ki [1] [nM]	Ki [2] [nM]	Ki [3] [nM]	Ki [4] [nM]	Ki [5] [nM]
C[C@@H](O)[C@H](NC(=O)[C@H](Cc1ccccc1)NC(=O)[C@@H](NC(=O)[C@H](CCCCN)NC(=O)[C@@H](Cc1c[nH]c2ccccc12)NC(=O)[C@H](Cc1ccccc1)NC(=O)[C@H](Cc1ccccc1)NC(=O)[C@H](N)Cc1ccccc1)[C@@H](C)O)C(N)=O [CAS_133073-82-2] (H-[dF]FF[dW]KTFT-NH2)	32	0.42	18	–	–
CC(C)[C@H](NC(=O)[C@H](CCCCN)NC(=O)[C@@H](Cc1c[nH]c2ccccc12)NC(=O)[C@H](Cc1ccc(O)cc1)NC(=O)[C@H](Cc1ccccc1)NC(=O)[C@H](N)Cc1ccccc1)C(=O)N[C@@H](Cc1ccccc1)C(=O)N[C@H](Cc1ccc2ccccc2c1)C(N)=O [CAS_150155-61-6] (H-[dF]FY[dW]KVF[d2Nal]-NH2)	1000	0.02	158	> 10000	43
CC(C)[C@@H]1NC(=O)[C@H](CCCCN)NC(=O)[C@@H](Cc2c[nH]c3ccccc23)NC(=O)[C@H](Cc2ccc(O)cc2)NC(=O)[C@@H](NC(=O)[C@H](N)Cc2ccc3ccccc3c2)CSSC[C@@H](C(=O)N[C@H](C(N)=O)[C@@H](C)O)NC1=O [D-Nal-Cys-Tyr-D-Trp-Lys-Val-Cys-Thr-NH2]	1.6	4.9	–	> 10000	–
CC(C)[C@H](NC(=O)[C@H](CCCCN)NC(=O)[C@H](Cc1c[nH]c2ccccc12)NC(=O)[C@H](Cc1ccc(O)cc1)NC(=O)[C@@H](N)CS)C(=O)N[C@@H](CS)C(=O)N[C@H](C(N)=O)[C@@H](C)O [D-Nal-Cys-Tyr-D-Trp-Lys-Val-Cys-Thr-NH2] (H-CYWKVCT-NH2)	–	–	1000	–	–
CC[C@@H]1NC(=O)[C@H](CCCCN)NC(=O)[C@@H](Cc2c[nH]c3ccccc23)NC(=O)[C@H](Cc2ccc(O)cc2)NC(=O)[C@@H](NC(=O)[C@H](N)Cc2ccccc2)CSSC[C@@H](C(=O)N[C@@H](Cc2ccc3ccccc3c2)C(N)=O)NC1=O [D-Phe-Cys-Tyr-D-Trp-Lys-Abu-Cys-Nal-NH] (H-[dF]CY[dW]K[Abu]C[2Nal]-NH2; disulfide 2-7)	0.01	11	–	> 10000	–
CC(C)[C@H](NC(=O)[C@H](CCCCN)NC(=O)[C@@H](Cc1c[nH]c2ccccc12)NC(=O)[C@H](Cc1ccc(O)cc1)NC(=O)[C@H](Cc1ccccc1)NC(=O)[C@H](N)Cc1ccccc1)C(=O)N[C@@H](Cc1ccccc1)C(=O)N[C@H](C(N)=O)[C@@H](C)O [D-Phe-Phe-Tyr-D-Trp-Lys-Val-Phe-Thr-NH2] (H-[dF]FY[dW]KVFT-NH2)	46	0.03	–	> 10000	1.2
CC(C)[C@H](NC(=O)[C@H](CCCCN)NC(=O)[C@H](Cc1c[nH]c2ccccc12)NC(=O)[C@H](Cc1ccc(O)cc1)NC(=O)[C@H](Cc1ccccc1)NC(=O)C(N)c1ccccc1)C(=O)N[C@@H](Cc1ccccc1)C(=O)N[C@H](C(N)=O)[C@@H](C)O (stereo partly drawn) [D-Phe-Phe-Tyr-D-Trp-Lys-Val-Phe-Thr-NH2] (H-[ξPhg]FYWKVFT-NH2)	–	–	77	–	–
